{"source": "patent US4740233A", "about": "“Substituted 1,2,4-triazolo[1,5-a]-pyrimidine-2-sulfonamides and compositions and methods of controlling undesired vegetation and suppressing the nitrification of ammonium nitrogen in soil” (The Dow Chemical Company, priority 1986, dated 1988)", "key": {"rice": {"test_system": "rice", "test": "Control of aquatic plant species (paddy water)", "format": "in vivo, Oryza sativa", "settings": "Oryza sativa, 216 h, nine days, read-out: Percent control; for pest or weed control at 500 g/ha: 0.5 Kg/Ha", "description": "(§1) In testing for such utility, the plant species to be tested were transplanted into 16 oz. containers into about 2 inches of soil when they were in the 1-2 inch stage and then flooded to a depth of about 1 inch. An acetone concentrate of the chemical to be tested was then injected into the paddy water, the volume injected being varied as desired to provide the desired concentration. Percent control was evaluated nine days after application."}, "barnyardgrass": {"test_system": "barnyardgrass", "test": "Control of aquatic plant species (paddy water)", "format": "in vivo, Echinochloa crusgalli", "settings": "Echinochloa crus-galli, 216 h, nine days, read-out: Percent control; for pest or weed control at 500 g/ha: 0.5 Kg/Ha", "description": "as §1"}, "sprangletop": {"test_system": "sprangletop", "test": "Control of aquatic plant species (paddy water)", "format": "in vivo, Leptochloa filiformis", "settings": "Leptochloa filiformis, 216 h, nine days, read-out: Percent control; for pest or weed control at 500 g/ha: 0.5 Kg/Ha", "description": "as §1"}, "yellow nutsedge": {"test_system": "yellow nutsedge", "test": "Control of aquatic plant species (paddy water)", "format": "in vivo, Cyperus esculentus", "settings": "Cyperus, 216 h, nine days, read-out: Percent control; for pest or weed control at 500 g/ha: 0.5 Kg/Ha", "description": "as §1"}, "[1]": {"test_system": "nitrification of ammonium nitrogen", "test": "Suppression of nitrification of ammonium nitrogen in soil", "settings": "27° C.", "how_it_was_run": "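Value is % NH4-N remaining after a two-week, 27° C incubation of treated soil held at 1/3 bar tension moisture. Nitrate was measured with an ion-selective electrode after extraction with ammonium sulfate solution and 10 min shaking.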"}}, "data": [{"smiles": "Cc1cc(C)n2nc(S(=O)(=O)Nc3ccccc3S(=O)(=O)N(C)C)nc2n1", "note": "[Compound 15]", "values": [{"measurement": "pest or weed control at 4000 g/ha", "setting": "rice; 4.0 Kg/Ha", "value": 35, "unit": "%"}, {"measurement": "pest or weed control at 4000 g/ha", "setting": "barnyardgrass; 4.0 Kg/Ha", "value": 25, "unit": "%"}, {"measurement": "pest or weed control at 4000 g/ha", "setting": "sprangletop; 4.0 Kg/Ha", "value": 0, "unit": "%"}, {"measurement": "pest or weed control at 4000 g/ha", "setting": "yellow nutsedge; 4.0 Kg/Ha", "value": 70, "unit": "%"}, {"measurement": "% NH4-N Remaining After 2 Weeks Incubation", "setting": "[1]; 0.06 ppm", "value": 1, "unit": "%"}, {"measurement": "% NH4-N Remaining After 2 Weeks Incubation", "setting": "[1]; 0.125 ppm", "value": 0, "unit": "%"}, {"measurement": "% NH4-N Remaining After 2 Weeks Incubation", "setting": "[1]; 0.25 ppm", "value": 23, "unit": "%"}, {"measurement": "% NH4-N Remaining After 2 Weeks Incubation", "setting": "[1]; 0.5 ppm", "value": 42, "unit": "%"}, {"measurement": "% NH4-N Remaining After 2 Weeks Incubation", "setting": "[1]; 1 ppm", "value": 54, "unit": "%"}]}, {"smiles": "CSc1ccccc1NS(=O)(=O)c1nc2nc(C)cc(C)n2n1", "note": "[Compound 9]", "values": [{"measurement": "pest or weed control at 250 g/ha", "setting": "rice; 0.25 Kg/Ha", "value": 0, "unit": "%"}, {"measurement": "pest or weed control at 1000 g/ha", "setting": "rice; 1.0 Kg/Ha", "value": 25, "unit": "%"}, {"measurement": "pest or weed control at 250 g/ha", "setting": "barnyardgrass; 0.25 Kg/Ha", "value": 93, "unit": "%"}, {"measurement": "pest or weed control at 1000 g/ha", "setting": "barnyardgrass; 1.0 Kg/Ha", "value": 99, "unit": "%"}, {"measurement": "pest or weed control at 250 g/ha", "setting": "sprangletop; 0.25 Kg/Ha", "value": 80, "unit": "%"}, {"measurement": "pest or weed control at 1000 g/ha", "setting": "sprangletop; 1.0 Kg/Ha", "value": 97, "unit": "%"}, {"measurement": "pest or weed control at 250 g/ha", "setting": "yellow nutsedge; 0.25 Kg/Ha", "value": 30, "unit": "%"}, {"measurement": "pest or weed control at 1000 g/ha", "setting": "yellow nutsedge; 1.0 Kg/Ha", "value": 85, "unit": "%"}, {"measurement": "% NH4-N Remaining After 2 Weeks Incubation", "setting": "[1]; 0.01 ppm", "value": 0, "unit": "%"}, {"measurement": "% NH4-N Remaining After 2 Weeks Incubation", "setting": "[1]; 0.1 ppm", "value": 14, "unit": "%"}, {"measurement": "% NH4-N Remaining After 2 Weeks Incubation", "setting": "[1]; 1 ppm", "value": 59, "unit": "%"}, {"measurement": "% NH4-N Remaining After 2 Weeks Incubation", "setting": "[1]; 10 ppm", "value": 88, "unit": "%"}]}, {"smiles": "Cc1cc(C)n2nc(S(=O)(=O)Nc3c(C)cccc3[N+](=O)[O-])nc2n1", "note": "[Compound 49]", "values": [{"measurement": "pest or weed control at 16 g/ha", "setting": "rice; 0.016 Kg/Ha", "value": 0, "unit": "%"}, {"measurement": "pest or weed control at 500 g/ha", "setting": "rice", "value": 97, "unit": "%"}, {"measurement": "pest or weed control at 16 g/ha", "setting": "barnyardgrass; 0.016 Kg/Ha", "value": 50, "unit": "%"}, {"measurement": "pest or weed control at 500 g/ha", "setting": "barnyardgrass", "value": 97, "unit": "%"}, {"measurement": "pest or weed control at 16 g/ha", "setting": "sprangletop; 0.016 Kg/Ha", "value": 0, "unit": "%"}, {"measurement": "pest or weed control at 500 g/ha", "setting": "sprangletop", "value": 97, "unit": "%"}, {"measurement": "pest or weed control at 16 g/ha", "setting": "yellow nutsedge; 0.016 Kg/Ha", "value": 95, "unit": "%"}, {"measurement": "pest or weed control at 500 g/ha", "setting": "yellow nutsedge", "value": 99, "unit": "%"}, {"measurement": "% NH4-N Remaining After 2 Weeks Incubation", "setting": "[1]; 0.01 ppm", "value": 42, "unit": "%"}, {"measurement": "% NH4-N Remaining After 2 Weeks Incubation", "setting": "[1]; 0.1 ppm", "value": 77, "unit": "%"}, {"measurement": "% NH4-N Remaining After 2 Weeks Incubation", "setting": "[1]; 1 ppm", "value": 90, "unit": "%"}, {"measurement": "% NH4-N Remaining After 2 Weeks Incubation", "setting": "[1]; 10 ppm", "value": 99, "unit": "%"}]}, {"smiles": "Cc1cc(C)n2nc(S(=O)(=O)Nc3c(Cl)cccc3I)nc2n1", "note": "[Compound 53]", "values": [{"measurement": "pest or weed control at 31 g/ha", "setting": "rice; 0.031 Kg/Ha", "value": 0, "unit": "%"}, {"measurement": "pest or weed control at 500 g/ha", "setting": "rice", "value": 99, "unit": "%"}, {"measurement": "pest or weed control at 31 g/ha", "setting": "barnyardgrass; 0.031 Kg/Ha", "value": 80, "unit": "%"}, {"measurement": "pest or weed control at 500 g/ha", "setting": "barnyardgrass", "value": 99, "unit": "%"}, {"measurement": "pest or weed control at 31 g/ha", "setting": "sprangletop; 0.031 Kg/Ha", "value": 10, "unit": "%"}, {"measurement": "pest or weed control at 500 g/ha", "setting": "sprangletop", "value": 97, "unit": "%"}, {"measurement": "pest or weed control at 31 g/ha", "setting": "yellow nutsedge; 0.031 Kg/Ha", "value": 95, "unit": "%"}, {"measurement": "pest or weed control at 500 g/ha", "setting": "yellow nutsedge", "value": 99, "unit": "%"}, {"measurement": "% NH4-N Remaining After 2 Weeks Incubation", "setting": "[1]; 0.01 ppm", "value": 47, "unit": "%"}, {"measurement": "% NH4-N Remaining After 2 Weeks Incubation", "setting": "[1]; 0.1 ppm", "value": 71, "unit": "%"}, {"measurement": "% NH4-N Remaining After 2 Weeks Incubation", "setting": "[1]; 1 ppm", "value": 85, "unit": "%"}, {"measurement": "% NH4-N Remaining After 2 Weeks Incubation", "setting": "[1]; 10 ppm", "value": 93, "unit": "%"}]}]}
